Data on five compounds can be found in publication PMC8619593 (Pharmaceuticals, 2021).

Structures are written as SMILES. ≈ marks a conversion by molar mass, not a printed value. Some results are limits rather than exact numbers.

The subject of one data set is Vero E6 cells. The following applies: dilutions from 100 µM.
Data set [1] deals with SARS-CoV-2. Kind of data set: Viral RNA reduction assay (ddPCR) in Vero E6 cells, MOI 0.01. The following applies: Vero E6 cells, MOI 0.01, tested at 50 µM.
In another data set the target is 3CLPro (Severe acute respiratory syndrome coronavirus 2, UniProt P0DTD1). Kind of data set: 3CLPro FRET-based inhibition assay. The format is biochemical, SARS-CoV-2. The following applies: for IC50: FRET, 600 nM 3CLPro, 250 nM substrate.
The subject of data set [2] is Enterococcus faecalis ATCC 29212. The data set is described as follows: Broth microdilution MIC. The following applies: ATCC29212, 24 h. Background: Dilution methods test growth across graded concentrations, often in twofold steps.
In data set [3] the test system is Staphylococcus epidermidis mecA. Kind of data set: Broth microdilution MIC. The following applies: Staphylococcus epidermidis, 24 h.
In data set [4] the test system is Staphylococcus aureus MRSA ATCC 33591. Kind of data set: Broth microdilution MIC. The following applies: Staphylococcus aureus, 24 h.
The test system of data set [5] is Bacillus subtilis ATCC 6633. Kind of data set: Broth microdilution MIC. The following applies: ATCC6633, 24 h.
The test system of data set [6] is Enterococcus faecalis ATCC 51299 VanB. The data set is described as follows: Broth microdilution MIC. The following applies: Enterococcus faecalis, ATCC51299, 24 h.
The test system of data set [7] is SARS-CoV-2.
For data set [8], the system named is Enterococcus faecalis 15376 VanA. Kind of data set: Broth microdilution MIC. The following applies: Enterococcus faecalis, 15376VANA, 24 h.
Data set [9] relates to Staphylococcus epidermidis ATCC 35984 biofilm. The data set is described as follows: Broth microdilution MIC. The following applies: Staphylococcus epidermidis, ATCC35984, 24 h.
Data set [10] addresses Human recombinant cathepsin L (Homo sapiens, UniProt P07711). Kind of data set: Cathepsin L inhibition assay. The following applies: for IC50: read-out: Cathepsin L IC50, pH 5.5, substrate Z-Phe-Arg-AMC. It counts as biochemical.
The target in data set [11] is T1, Human recombinant cathepsin B (exopeptidase activity) (Homo sapiens, UniProt P07858).
T1 construct: The Preparation of Catalytically Active Human Cathepsin B from Its Precursor Expressed in Escherichia coli; made in house; host or cells: Escherichia coli
The data set is described as follows: Cathepsin B exopeptidase inhibition assay. The following applies: for IC50: read-out: Exopeptidase Cathepsin B IC50, pH 5.0, substrate Abz-Gly-Ile-Val-Arg-Ala-Lys(Dnp)-OH. The format is biochemical.

Data set [12] relates to Staphylococcus aureus MSSA ATCC 29213. Kind of data set: Broth microdilution MIC. The following applies: Staphylococcus aureus, 24 h.

Sequence of Human recombinant cathepsin L (P07711 114-333): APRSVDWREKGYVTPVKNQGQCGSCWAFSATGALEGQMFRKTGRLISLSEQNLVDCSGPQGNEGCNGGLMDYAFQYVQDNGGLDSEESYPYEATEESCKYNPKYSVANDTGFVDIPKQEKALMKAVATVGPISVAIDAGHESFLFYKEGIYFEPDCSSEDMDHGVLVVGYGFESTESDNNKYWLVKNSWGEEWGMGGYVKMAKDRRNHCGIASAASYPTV

The CC50 is the concentration at which the toxic effect on the cells reaches its halfway point. A low value points to harm at low concentration. The IC50 is the concentration that inhibits the measured activity by half. Turning to `CC(/C=C/C=C(C)/C=C/C(=O)O)=C\C=C\C=C(C)\C=C\C=C(C)\C=C\C(=O)O` (stereo in doubt) [Compound 1d, norbixin], in the data set on Vero E6 cells, the CC50 was more than 100 µM. The entries for the “SARS-CoV-2 RNA Reduction, activity at 50 µM” value in the data set with SARS-CoV-2 [1] and in the data set with SARS-CoV-2 [1] (listed as 1d (norbixin)) were “completely inactive” and “not active at 50 µM”, respectively. The IC50 against 3CLPro was found to be 36.1 ± 11.7 µM.

For `COC(=O)/C=C/C(C)=C\C=C\C(C)=C\C=C\C=C(C)\C=C\C=C(C)\C=C\C(=O)N[C@H]1C(=O)N[C@@H]2Cc3ccc(c(Cl)c3)Oc3cc4cc(c3O)Oc3ccc(cc3Cl)[C@@H](O[C@@H]3O[C@H](CO)[C@@H](O)[C@H](O)[C@H]3NC(C)=O)[C@@H]3NC(=O)[C@H](NC(=O)[C@@H]4NC(=O)[C@@H](NC2=O)c2cc(O)cc(c2)Oc2cc1ccc2O)c1ccc(O)c(c1)-c1c(O)cc(O)cc1[C@@H](C(=O)O)NC3=O` [Compound 5a], the half-maximal cytotoxic concentration (CC50) in the data set on Vero E6 cells was more than 100 µM. Also, the MIC in data set [2] stood at 16 µg/mL (≈ 9 µM); in data set [3], 16 µg/mL (≈ 9 µM); in data set [4], 0.5 µg/mL (≈ 0.281 µM); in data set [5] it was 32 µg/mL (≈ 18 µM); in data set [6], 16 µg/mL (≈ 9 µM); in [8], 16 µg/mL (≈ 9 µM). For the same compound, the MIC in data set [9] came to 0.5 µg/mL (≈ 0.281 µM); in [12], 16 µg/mL (≈ 9 µM). Also, the “Therapeutic Index CC50/EC50” value in the data set with SARS-CoV-2 [7] is given as more than 17. The IC50 worked out at 42.4 ± 1.86 µM in data set [10], 13.9 ± 1.73 µM against 3CLPro and 47.9 ± 1.07 µM in data set [11].

`COC(=O)/C(C)=C/C=C/C(C)=C/C=C/C=C(C)/C=C/C=C(\C)C(=O)N[C@H]1C(=O)N[C@@H]2Cc3ccc(c(Cl)c3)Oc3cc4cc(c3O)Oc3ccc(cc3Cl)[C@@H](O[C@@H]3O[C@H](CO)[C@@H](O)[C@H](O)[C@H]3NC(C)=O)[C@@H]3NC(=O)[C@H](NC(=O)[C@@H]4NC(=O)[C@@H](NC2=O)c2cc(O)cc(c2)Oc2cc1ccc2O)c1ccc(O)c(c1)-c1c(O)cc(O)cc1[C@@H](C(=O)O)NC3=O` [Compound 5b]: in the data set on Vero E6 cells, the CC50 was more than 100 µM. For the same compound, the MIC in data set [2] worked out at 4 µg/mL (≈ 2.32 µM); in data set [3], 2 µg/mL (≈ 1.16 µM); in data set [4], 2 µg/mL (≈ 1.16 µM); in data set [5], 16 µg/mL (≈ 9.27 µM); in data set [6] it was 8 µg/mL (≈ 4.63 µM); in [8], 8 µg/mL (≈ 4.63 µM). Moreover, the MIC in data set [9] came to 0.5 µg/mL (≈ 0.29 µM); in data set [12], 8 µg/mL (≈ 4.63 µM). Also, the “Therapeutic Index CC50/EC50” value in the data set with SARS-CoV-2 [7] is more than 19.2. Besides, the IC50 in data set [10] was found to be 103 ± 1.12 µM; in data set [11], 99.5 ± 1.16 µM.

By inhibition is commonly meant the relative decrease from the control value, in per cent. Consider `CC(=O)N[C@H]1[C@H](O[C@@H]2c3ccc(c(Cl)c3)Oc3cc4cc(c3O)Oc3ccc(cc3Cl)C[C@H]3NC(=O)[C@H](N)c5ccc(O)c(c5)Oc5cc(O)cc(c5)[C@H](NC3=O)C(=O)N[C@H]4C(=O)N[C@H]3C(=O)N[C@@H]2C(=O)N[C@H](C(=O)O)c2cc(O)cc(O)c2-c2cc3ccc2O)O[C@H](CO)[C@@H](O)[C@@H]1O` [Compound 2, Teicoplanin pseudoaglycone], for which the inhibition at 50 µM in [10] (read-out: Cathepsin L relative inhibition) was found to be 0.04%; in [11] (read-out: Exopeptidase Cathepsin B relative inhibition), 7.8%. Besides, the inhibition at 200 µM on 3CLPro (at 200 μM) was found to be 34%.

Consider `COC(=O)/C=C/C(C)=C\C=C\C(C)=C\C=C\C=C(C)\C=C\C=C(C)\C=C\C(=O)N[C@H]1C(=O)N[C@H]2C(=O)N[C@H](C(=O)N[C@H]3C(=O)N[C@H]4C(=O)N[C@H](C(=O)N[C@H](C(=O)OC)c5cc(O)cc(O)c5-c5cc4ccc5O)[C@H](O)c4ccc(cc4)Oc4cc3cc(c4O)Oc3ccc(cc3)[C@H]2O)c2cc(O)c(C)c(c2)Oc2cc1ccc2O` [Compound 7], for which the MIC in data set [2] was 32 µg/mL (≈ 20.6 µM); in [3], 64 µg/mL (≈ 41.3 µM); in data set [4] it was 64 µg/mL (≈ 41.3 µM); in data set [5], 32 µg/mL (≈ 20.6 µM); in data set [6], 64 µg/mL (≈ 41.3 µM); in data set [8], 256 µg/mL (≈ 165 µM). For the same compound, the MIC in data set [9] and in data set [12] was 64 µg/mL (≈ 41.3 µM) each time.
